These results are taken from patent publication US6410573B1, “2,5-substituted benzolsulfonylureas and thioureas methods for the production thereof use thereof and pharmaceutical preparations containing the same” (Aventis Pharma Deutschland GmbH, priority 1998, dated 2002).

In data set [1] the test system is papillary muscle of the guinea pig. The experiment in a line: Action potential duration (APD90) in the papillary muscle of the guinea pig, shortened by rilmakalim (HOE 234). It is filed as cell-based. The settings on record: test substance 2 μmol/l, 60 min after its addition; rilmakalim (HOE 234) 1 μg/ml given 30 min before; starting values 165-191, after HOE 234 alone 18-37; 37° C., 1 Hz. The text has this:
Test 1: Action potential duration in the papillary muscle of the guinea pig
ATP deficiency states, such as are observed during ischemia in the cardiac muscle cell, lead to a reduction of the action potential duration. They are regarded as one of the causes of so-called reentry arrhythmias, which can cause sudden heart death. The opening of ATP-sensitive potassium channels by the lowering of ATP (adenosine triphosphate) is regarded as causing this.
A standard microelectrode technique was employed for the measurement of the action potential in the papillary muscle of the guinea pig. For this guinea pigs of both sexes were killed by a blow to the head, the hearts were removed, the papillary muscles were separated out and suspended in an organ bath. The organ bath was irrigated with Ringer's solution (136 mmol/l of NaCl, 3.3 mmol/l of KCl, 2.5 mmol/l of CaCl2, 1.2 mmol/l of KH2PO4, 1.1 mmol/l of MgSO4, 5.0 mmol/l of glucose, 10.0 mmol/l of N-(2-hydroxyethyl)piperazine-N′-(2-ethanesulfonic acid) (HEPES), pH adjusted to 7.4 with NaOH) and aerated with 100% oxygen at a temperature of 37° C. The muscle was stimulated by means of an electrode using squarewave impulses of 1 V and 1 ms duration and a frequency of 1 Hz. The action potential was derived and recorded by means of a glass microelectrode inserted intracellularly, which is filled with 3 mol/l of KCl solution. The substance to be tested was added to the Ringer's solution in a concentration of 2 μmol/l. The action potential was amplified using an amplifier from Hugo Sachs (March-Hugstetten, Germany) and stored and analyzed by means of a computer. The duration of the action potential was determined at a degree of repolarization of 90% (APD90). The action potential reduction was produced by addition of a solution of the potassium channel opener rilmakalim (HOE 234) (W. Linz, E. Klaus, U. Albus, R. H. A. Becker, D. Mania, H. C. Englert, B. A. Schölkens, Arzneimittelforschung/Drug Research, 42 (II) (1992) 1180-1185) (rilmakalim concentration 1 μg/ml). 30 minutes after the administration of rilmakalim, the action potential duration APD90 was recorded. The test substance was then added and the action potential duration APD90, which was extended again, was recorded after a further 60 minutes. The test substances were added to the bath solution as stock solutions in propanediol.

The next data set relates to RINm5F cells. Nature of the data set: Membrane potential on isolated β cells (whole-cell patch clamp, RINm5F cells). Conditions: 1 μmol/l test substance, diaxozide 100 μmol/l in bath, 34±1° C., control potential before addition −70 to −78 mV. It is filed as cell-based. The text has this: Test 2: Membrane potential on isolated β cells
The mechanism of action of the hypoglycemic sulfonylureas such as, for example, glibenclamide has been elucidated in broad outline. The target organ of the sulfonylureas is the β cell of the pancreas, where they contribute to the release of the hypoglycemic hormone insulin by influencing the electrical potential of the cell membrane. A hypoglycemic sulfonylurea such as, for example, glibenclamide brings about a depolarization of the cell membrane, which leads to a […] influx of calcium ions and as a consequence of this to insulin release. The extent ΔU of this depolarization of the cell membrane by the test substances was determined on insulin-secreting RINm5F cells, a pancreas tumor cell line. The potency of a compound in this model predicts the extent of the […] potential of this compound.
Cell cultures of RINm5F cells: RINm5F cells were cultured at 37° C. in RPMI 1640 culture medium (Flow), to which 11 mmol/l of glucose, 10% (v/v) fetal calf serum, 2 mmol/l of glutamine and 50 μg/ml of gentamycin were added. The cells were inoculated onto petri dishes every 2 to 3 days and kept in a humidified atmosphere of […] and 5% CO2 at a temperature of 37° C. For the investigations, the cells were isolated by incubation (about 3 min) in a Ca^2+-free medium which contains 0.25% trypsin.
Measuring method: in a Plexiglas chamber, isolated RINm5F cells were applied to an inverted microscope which was equipped with differential interference contrast optics. Under visual control (400× magnification), a fire-polished micropipette having an opening diameter of approximately 1 μm was placed onto the cell with the aid of a micromanipulator. By applying a slight underpressure to the interior of the patch pipette, a high electrical seal between the glass and cell membrane was first produced. Then, by increasing the underpressure, the membrane spot under the measuring pipette was torn off. In this whole-cell configuration, the cell potential was recorded with the aid of a patch clamp amplifier (L/M EPC 7, List, Darmstadt) and the whole-cell current was measured by applying a voltage ramp. […] Stock solutions of the test substances in a concentration of 100 mmol/l in DMSO and corresponding dilutions in an NaCl solution were prepared. DMSO on its own had no effect on the cell potential. In order to stabilize the cell potential, diaxozide (100 μmol/l), an opener for ATP-sensitive K^+ channels, was added to the bath solution in all experiments. All experiments were carried out at 34±1° C.
Background: The patch-clamp technique gives a direct electrical read-out from membranes.

On to `CNC(=O)NS(=O)(=O)c1cc(CCNC(=O)c2cc(Cl)ccc2OC)ccc1-c1ccco1` [Example 15, 5-(2-(5-Chloro-2-methoxybenzamido)ethyl)-2-(2-furyl)-N-(methylaminocarbonyl)benzenesulfonamide], for which the “APD90 +HOE 234, 30 min., then +substance, 60 min.” value in data set [1] amounted to 83 milliseconds.

In the case of `CNC(=S)NS(=O)(=O)c1cc(CCNC(=O)c2cc(Cl)ccc2OC)ccc1-c1ccccn1` [Example 16, 5-(2-(5-Chloro-2-methoxybenzamido)ethyl)-N-(methylaminothiocarbonyl)-2-(2-pyridyl)benzenesulfonamide], the “APD90 +HOE 234, 30 min., then +substance, 60 min.” value in data set [1] turned out to be 153 milliseconds.

Regarding `CNC(=S)NS(=O)(=O)c1cc(CCNC(=O)c2cc(Cl)ccc2OC)ccc1Sc1ccccc1` [Example 20, 5-(2-(5-Chloro-2-methoxybenzamido)ethyl)-N-(methylaminothiocarbonyl)-2-(phenylsulfanyl)benzenesulfonamide], the “APD90 +HOE 234, 30 min., then +substance, 60 min.” value in data set [1] is reported as 139 milliseconds.

Regarding `COc1ccc(Cl)cc1C(=O)NCCc1ccc(S(=O)(=O)NC(=O)NC2CCCCC2)cc1` [Glibenclamide, reference compound], in the data set with RINm5F cells, the “ΔU (depolarization of the cell potential)” value came to 47 mV.

The term melting point denotes the temperature, or range, at which the solid turns liquid. For the molecule `CCNC(=S)NS(=O)(=O)c1cc(CCNC(=O)c2cc(Cl)ccc2OC)ccc1-c1ccc(SC)cc1` [Example 10, 5-(2-(5-Chloro-2-methoxybenzamido)ethyl)-N-(ethylaminothiocarbonyl)-2-(4-methylthiophenyl)benzenesulfonamide], the melting point was in the range of 178 to 179 °C.

In turn, `C#Cc1ccc(CCNC(=O)c2cc(Cl)ccc2OC)cc1S(=O)(=O)NC(=S)NC` [Example 19, 5-(2-(5-Chloro-2-methoxybenzamido)ethyl)-2-ethynyl-N-(methylaminothiocarbonyl)benzenesulfonamide] came in with a melting point of 224 to 225 °C.

`CNC(=S)NS(=O)(=O)c1cc(CCNC(=O)c2cc(Cl)ccc2OC)ccc1-c1ccc(OC)cc1` [Example 9, 5-(2-(5-Chloro-2-methoxybenzamido)ethyl)-2-(4-methoxyphenyl)-N-(methylaminothiocarbonyl)benzenesulfonamide]: the melting point lay in the range of 185 to 188 °C. The “ΔU (depolarization of the cell potential)” value in the data set on RINm5F cells amounted to 15 mV.

The molecule `C=CCc1ccc(CCNC(=O)c2cc(Cl)ccc2OC)cc1S(=O)(=O)NC(=O)NC` [Example 18, 2-Allyl-5-(2-(5-chloro-2-methoxybenzamido)ethyl)-N-(methylaminocarbonyl)benzenesulfonamide] gave a melting point of 124 to 126 °C.

Consider `CCNC(=O)NS(=O)(=O)c1cc(CCNC(=O)c2cc(Cl)ccc2OC)ccc1-c1ccccc1` [Example 4, 5-(2-(5-Chloro-2-methoxybenzamido)ethyl)-N-(ethylaminocarbonyl)-2-phenylbenzenesulfonamide], for which the “APD90 +HOE 234, 30 min., then +substance, 60 min.” value in data set [1] was 81 milliseconds.

The molecule `CNC(=O)NS(=O)(=O)c1cc(CCNC(=O)c2cc(Cl)ccc2OC)ccc1-c1ccccn1` [Example 17, 5-(2-(5-Chloro-2-methoxybenzamido)ethyl)-N-(methylaminocarbonyl)-2-(2-pyridyl)benzenesulfonamide] displayed a melting point of 160 °C.

The molecule `CCNC(=S)NS(=O)(=O)c1cc(CCNC(=O)c2cc(Cl)ccc2OC)ccc1-c1ccccc1` [Example 3, 5-(2-(5-Chloro-2-methoxybenzamido)ethyl)-N-(ethylaminothiocarbonyl)-2-phenylbenzenesulfonamide] registered a melting point of 168 to 170 °C.

Consider `CNC(=S)NS(=O)(=O)c1cc(CCNC(=O)c2cc(Cl)ccc2OC)ccc1-c1ccccc1` [Example 1, 5-(2-(5-Chloro-2-methoxybenzamido)ethyl)-N-(methylaminothiocarbonyl)-2-phenylbenzenesulfonamide], for which the “ΔU (depolarization of the cell potential)” value with RINm5F cells is 6 mV. For the same molecule, the “APD90 +HOE 234, 30 min., then +substance, 60 min.” value in data set [1] came out at 134 milliseconds.

`CNC(=S)NS(=O)(=O)c1cc(CCNC(=O)c2cc(Cl)ccc2OC)ccc1-c1ccc(Cl)cc1` [Example 8, 5-(2-(5-Chloro-2-methoxybenzamido)ethyl)-2-(4-chlorophenyl)-N-(methyl-aminothiocarbonyl)benzenesulfonamide] registered a melting point of 189 to 192 °C.

On to `CNC(=S)NS(=O)(=O)c1cc(CCNC(=O)c2cc(Cl)ccc2OC)ccc1-c1ccco1` [Example 14, 5-(2-(5-Chloro-2-methoxybenzamido)ethyl)-2-(2-furyl)-N-(methylaminothiocarbonyl)benzenesulfonamide], for which the melting point fell in the range of 145 to 146 °C. In addition, the “ΔU (depolarization of the cell potential)” value in the data set with RINm5F cells is recorded as 7 mV.

Consider `CNC(=O)NS(=O)(=O)c1cc(CCNC(=O)c2cc(Cl)ccc2OC)ccc1-c1cccs1` [Example 13, 5-(2-(5-Chloro-2-methoxybenzamido)ethyl)-N-(methylaminocarbonyl)-2-(2-thienyl)benzenesulfonamide], for which, in data set [1], the “APD90 +HOE 234, 30 min., then +substance, 60 min.” value came out at 72 milliseconds.

On to `CNC(=S)NS(=O)(=O)c1cc(CCNC(=O)c2cc(Cl)ccc2OC)ccc1-c1cccs1` [Example 12, 5-(2-(5-Chloro-2-methoxybenzamido)ethyl)-N-(methylaminothiocarbonyl)-2-(2-thienyl)benzenesulfonamide], for which the melting point fell in the range of 189 to 191 °C. Besides, the “ΔU (depolarization of the cell potential)” value in the data set on RINm5F cells stood at 5 mV.

`CNC(=S)NS(=O)(=O)c1cc(CCNC(=O)c2cc(Cl)ccc2OC)ccc1-c1ccc(F)cc1` [Example 7, 5-(2-(5-Chloro-2-methoxybenzamido)ethyl)-2-(4-fluorophenyl)-N-(methyl-aminothiocarbonyl)benzenesulfonamide]: in data set [1], the “APD90 +HOE 234, 30 min., then +substance, 60 min.” value was 71 milliseconds.
